This passage reports Kd results from paper PMC4972871, “Optimization of Electrospray Ionization by Statistical Design of Experiments and Response Surface Methodology: Protein–Ligand Equilibrium Dissociation Constant Determinations” (Journal of the American Society for Mass Spectrometry, 2016).

The structures appear in SMILES notation.

Assay [1] addresses T1, Plasmodium vivax guanylate kinase (PvGK) (Plasmodium vivax, UniProt A5K709).
T1 construct: gene PVX_099895; Full-length guanylate kinase with an N-terminal 6-histidine tag (23545 Da)
Description: native ESI-FT-ICR-MS titration (optimized source); confirmed by competition with GMP ([…]). It is filed as binding.

Assay [2] has as its target T1, Plasmodium vivax guanylate kinase (PvGK). Description: native ESI-FT-ICR-MS titration (optimized source conditions). It is filed as binding.

T1 sequence (A5K709 entry or part of it): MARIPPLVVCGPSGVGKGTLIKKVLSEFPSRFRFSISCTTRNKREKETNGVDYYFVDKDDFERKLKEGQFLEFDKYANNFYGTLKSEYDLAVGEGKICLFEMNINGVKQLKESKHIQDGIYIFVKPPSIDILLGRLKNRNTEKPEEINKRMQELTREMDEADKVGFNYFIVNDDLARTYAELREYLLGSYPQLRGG

As a reminder, the Kd is the concentration at which binding is half-saturated. For `Nc1nc2c(ncn2[C@@H]2O[C@H](COP(=O)(O)OP(=O)(O)O)[C@@H](O)[C@H]2O)c(=O)[nH]1` [GDP], the affinity in assay [1], expressed as Kd, was 0.3 ± 0.03 µM.
Regarding `Nc1nc2c(ncn2[C@@H]2O[C@H](COP(=O)(O)O)[C@@H](O)[C@H]2O)c(=O)[nH]1` [GMP], binding in assay [2] was put at a Kd of 1.84 ± 0.11 µM.
